Data published in patent US20080312160A1, “METHOD OF TREATING ENTERITIS, […], AND DIARRHEA FROM C. DIFFICILE WITH AN A2A ADENOSINE RECEPTOR AGONIST” (priority 2007, published 2008).
Peptide text beside a SMILES is read from it.

Assays:
[1] = test system: C. difficile toxin A-induced inflammation and secretion in rabbit ileal loops; assay type: in vivo, New Zealand white rabbits; settings: rabbit, in vivo
Method: Materials and Methods: New Zealand white rabbits weighing about 2 kg are fasted overnight. Under anesthesia with ketamine (60-80 mg/kg) and xylazine (5-10 mg/kg) administered intramuscularly, a midline abdominal incision is performed to expose the small bowel. After the ileum is flushed, four-cm loops are ligated using double ties with a 1 cm interval between loops. Each of the control loops is injected intraluminally with 1 mL solution of PBS with either C. difficile toxin A (toxin A) (Techlab, Blacksburg, Va.) at 10 μg/mL. Loops from another set of rabbits are treated with the adenosine A2A agonists, JMR 193 (ATL 193) (10 nM, 100 nM, or 1 uM doses) or ATL 146e ([…], 100 nM, 1 uM doses) immediately before the enterotoxin is administered. In addition a rabbit is treated with A2A agonist, ATL 313 (100 nM), alone and another rabbit treated with ATL 313 with alanyl-glutamine (25 mM). After 5 hours of incubation, the ligated small intestinal loops are removed. The length of each ligated ileal segment is measured and intraluminal fluid was quantified. Volume to length ratio, V/L (mL/cm), per loop is calculated. Samples of intestinal stained with hematoxylin-eosin and graded from 0 (none) to 4 (worst) based on the degree of mucosal disruption, increase in cellularity and intensity of vascular congestion.

[2] = test system: Toxin A-induced secretion in rabbit ileal loops; assay: Rabbit ileal loops, toxin A-induced secretion (Example 3); assay type: in vivo, New Zealand white rabbits
Excerpt: Rabbit Ileal Loops: The animal experiment protocol was approved by the Animal Care and Use Committee at the University of Virginia. Eight New Zealand white rabbits weighing between 2.5-3 kg were used for this experiment. Each rabbit was fasted overnight. On the day of the experiment, the rabbits were anesthetized intramuscularly using a ketamine and xylazine solution in a 2:1 ratio. An intravenous line was placed in the ear vein of each rabbit for administration of the adenosine analog, ATL 370 (Adenosine Therapeutics) or a phosphate buffered saline placebo (PBS). Once anesthetized, a midline abdominal incision was made and the ileum was exposed. A measured amount of ileum was injected with 5 mL of PBS to flush any remaining fecal material. After the ileum was flushed, 10 loops of 2.5-5 cm each were ligated using double ties, with 0.5-1 cm of space between each loop.
Once the bowel was exposed and ligated, each rabbit received a 250 μL IV injection of PBS (Toxin A and Toxin A/Alanyl glutamine groups) or 1.5 ug/250 μL of ATL 370 (Toxin A/Adenosine and Toxin A/Adenosine/Alanyl-glutamine groups). An additional dose of either PBS or ATL 370 was administered 2 hours after the first dose for a total of 2 doses. Each dose was followed by a 250-500 μL heparin saline injection to prevent the IV from clotting.
A total of 79 loops were studied, of which 15 loops from 8 animals served as controls. Each of the control loops were injected intraluminally with 1 mL of a sterile PBS solution. The remaining 64 loops were injected intraluminally with 20 μg/500 μL of Toxin A (TechLab) and combined with either 500 μL PBS (Toxin A and Toxin A/Adenosine groups) or 500 μL of a […], 30 mM, 10 mM, or 3 mM alanyl-glutamine solution (Toxin A/Alanyl-glutamine and Toxin A/Adenosine/Alanyl-glutamine groups). The ileal loops were replaced intraperitoneally and the abdomimal incision was sutured. Sedation continued throughout the procedure and were euthanized after 4 hours.
Measurement of intestinal secretion: After 4 hours of incubation, the animals were euthanized and the ligated loops were immediately removed. The length of each loop was measured and incised and the intraluminal secretion was quantified. The volume to length ratio (V:L) was measured as milliliters per centimeter per loop. The gross description of intestinal fluid (serous, serosanguinous, hemorrhagic or purulent) was documented.

[3] = test system: Toxin A-induced secretion in rabbit ileal loops; assay: as above; assay type: in vivo, New Zealand white rabbits; remark: listed apart in the source
[4] = test system: murine ileal loops injected with Clostridium difficile toxin A (TxA); assay: TxA-induced enteritis in ligated murine ileal loops: loop weight and secretion volume; assay type: in vivo, mice
Method: For this study, 174 male Swiss mice, 25-30 g body weight, from the animal colony of the Federal University of Ceara were used. The animals received water and food ad libitum.
(§1) Mice were fasted overnight, but allowed access to water, and then anesthetized with ketamine and xylazine (60 and 5 mg/Kg intramuscularly, respectively). Through a midline laparotomy, one 4-cm ileal loop was ligated and injected with either 0.1 ml of PBS pH 7.4 (control) or buffer containing TxA (1-10 μg). The abdomen was closed, and the animals were allowed to regain consciousness. Three hours after administration of TxA, mice were sacrificed and the intestinal loops were removed. The loop length, weight, and fluid volume were recorded. A portion of the loop was frozen at −70° C. for measurement of myeloperoxidase (MPO) and ADA activities and TNF-α concentration. The remaining tissue was fixed in 10% formalin and embedded in paraffin, and sections were stained with hematoxylin and eosin for histological grading of ileal inflammation. Some mice were injected with ATL 313 ([…] final concentration) immediately followed by PBS or TxA (5 μg); another group was injected with ZM241385 (5 nM), the selective A2A AR antagonist, immediately followed by PBS or ATL 313 (5 nM)+TxA (5 μg) in the ileal loop. In another experiment, TxA (5 μg) was injected into the ileal loop, the abdomen was closed, and, 30 min later, the abdomen was reopened and ATL 313 (5 nM) administered.

[5] = test system: Clostridium difficile toxin A (TxA)-induced histological alterations; assay: Histological grading of ileal inflammation, murine ileal loops; assay type: in vivo, mice
Method: as §1
The severity of inflammation was scored in coded slides by a pathologist on a scale of 1 (mild) to 3 (severe) for epithelial damage, edema, and neutrophil infiltration.

[6] = test system: Clostridium difficile toxin A-induced TNF-α production; assay: Quantification of TNF-α by ELISA in ileal tissue; assay type: in vivo, mice; settings: ZM241385 + ATL 313 + TxA
Method: as §1, with “In another experiment, TxA (5 μg) was injected into the ileal loop, the abdomen was closed, and, 30 min later, the abdomen was reopened and ATL 313 (5 nM) administered.” left out
Ileal tissue was harvested from animals in order to measure TNF-α concentration by enzyme-linked immunosorbent assay (ELISA). The results are expressed as pg/mL of TNF-α.

[7] = ZM241385 5 nM + ATL 313 5 nM + TxA 5 μg

Question: `CCNC(=O)C1OC(n2cnc3c(N)nc(C#CCC4CCC(C(=O)OC)CC4)nc32)C(O)C1O` (stereo not drawn) [ATL 146e, 4-{3-[6-Amino-9-(5-ethylcarbamoyl-3,4-dihydroxy-tetrahydro-furan-2-yl)-9H-purin-2-yl]-prop-2-ynyl}-cyclohexanecarboxylic acid methyl ester] was tested. Which “inflammation induced by toxin A (histology score 0 to 4)” value [1] did it give?
Answer: Its value is “reduced”.

Question: And the “toxin A-induced secretion (volume to length ratio)” value [1]?
Answer: The value was “not consistently ameliorated”.

Question: How did the “V:L ratio” value ([2]; ATL 370 IV 1.5 ug x 2 doses + intraluminal toxin A only, n=8, p=0.35 vs toxin A) turn out when `Nc1nc(C#CCC2CCN(C(=O)Oc3ccc(Cl)cc3)CC2)nc2c1ncn2C1OC(C(=O)NC2CC2)C(O)C1O` (stereo not drawn) [ATL 370, 4-{3-[6-Amino-9-(5-cyclopropylcarbamoyl-3,4-dihydroxy-tetrahydro-furan-2-yl)-9H-purin-2-yl]-prop-2-ynyl}-piperidine-1-carboxylic acid 4-chloro-phenyl ester] was run?
Answer: Its value is 0.44 mL/cm.

Question: And the “V:L ratio” value ([2]; ATL 370 IV + toxin A + alanyl-glutamine 3 mM)?
Answer: Its value is 0.21 mL/cm.

Question: What about the “V:L ratio” value ([2]; ATL 370 IV + toxin A + alanyl-glutamine 10 mM) of the same compound?
Answer: The value was 0.20 mL/cm.

Question: And the “V:L ratio” value ([2]; ATL 370 IV + toxin A + alanyl-glutamine 30 mM)?
Answer: The value was 0.14 mL/cm.

Question: What about the loops purulent ([2]; ATL 370 IV + toxin A + alanyl-glutamine, all doses (7/16)) of the same compound?
Answer: Its loops purulent is 44%.

Question: And the “number of hemorrhagic loops” value ([2]; ATL 370 IV + toxin A + alanyl-glutamine, all doses (16 loops))?
Answer: The value was “one”.

Question: And the “loops either hemorrhagic or purulent” value ([2]; ATL 370 IV + toxin A only (10/16))?
Answer: Its value is 63%.

Question: What about the “V:L ratio” value ([3]; ATL 370 IV + toxin A + alanyl-glutamine 100 mM, n=4, p<0.001 vs toxin A) of the same compound?
Answer: Its value is 0.05 mL/cm.

Question: How did the “inflammation induced by toxin A (histology score 0 to 4)” value [1] turn out when `CCNC(=O)C1OC(n2cnc3c(N)nc(C#CCC4CCC(COC(C)=O)CC4)nc32)C(O)C1O` (stereo not drawn) [JMR 193, Acetic acid 4-{3-[6-amino-9-(5-ethylcarbamoyl-3,4-dihydroxy-tetrahydro-furan-2-yl)-9H-purin-2-yl]-prop-2-ynyl}-cyclohexylmethyl ester] was run?
Answer: Its value is “reduced”.

Question: What about the “toxin A-induced secretion (volume to length ratio)” value [1] of the same compound?
Answer: The value was “not consistently ameliorated”.

Question: Which “secretion volume/ileal loop length ratio” value [4, 7] does the source give for `Nc1nc(NCCc2ccc(O)cc2)nc2nc(-c3ccco3)nn12` [ZM241385, 4-[2-(7-Amino-2-furan-2-yl-[1,2,4]triazolo[1,5-a][1,3,5]triazin-5-ylamino)-ethyl]-phenol, reference compound] here?
Answer: Its value is “significantly reversed the protective effect of ATL 313”.

Question: And the “weight/ileal loop length ratio” value [4, 7]?
Answer: The value was “significantly reversed the protective effect of ATL 313”.

Question: And the “secretion volume/ileal loop length” value ([4]; ZM241385 alone, no TxA, PBS=1.25±1.25)?
Answer: The value was 0.0 ± 0.0 µL/cm.

Question: What about the weight/ileal loop length ([4]; ZM241385 alone, no TxA, PBS=34.5±3.2) of the same compound?
Answer: Its weight/ileal loop length is 19.9 ± 0.9 mg/cm.

Question: What about the median injury score ([5]; ZM241385 + ATL 313 + TxA, median, range) of the same compound?
Answer: Its median injury score is 2.5.

Question: And the median injury score ([5]; compound alone, no TxA, median(range))?
Answer: The median injury score was 0(0-0).

Question: And the “TNF-α production in ileal tissue” value [6]?
Answer: The value was “blocked ATL313 action”.

Question: Which results are given for `C[C@H](N)C(=O)N[C@@H](CCC(N)=O)C(=O)O` [alanyl-glutamine] (H-Ala-Gln-OH)?
Answer: V:L ratio ([2]; toxin A mixed with alanyl-glutamine 3 mM, intraluminal, 4 hours): 0.96 mL/cm; V:L ratio ([2]; toxin A mixed with alanyl-glutamine 10 mM, intraluminal, 4 hours): 0.84 mL/cm; V:L ratio ([2]; toxin A mixed with alanyl-glutamine 30 mM, intraluminal, 4 hours): 0.67 mL/cm; loops hemorrhagic, purulent, or a combination of the two ([2]; toxin A/alanyl-glutamine loops (11/15)): 73%; V:L ratio ([3]; toxin A mixed with alanyl-glutamine 100 mM, intraluminal, 4 hours): 0.44 mL/cm
